Experiment [1] deals with E. coli 70S ribosome. In words: Competitive FP binding screening assay with Cf-ARV-1502 (relative FP). Also noted: species or system E. coli BW25113. To be noted: for Inhibition of Cf-ARV-1502 binding to the 70S ribosome (in words): Figure 3: peptide concentration 1.2 µmol/L; for Ribosome Binding (%): competitive ribosome binding against Cf-ARV-1502 (relative FP; values match 1.2 µmol/L peptide), low value = strong competition. As to the method:
E. coli 70S ribosomes were prepared using a previously described protocol that was slightly modified. Briefly, E. coli BW25113 was cultivated in Luria-Bertani (LB) medium and cells were harvested after reaching an optical density of ~4 at 600 nm by centrifugation (5000× g, 15 min, 4 °C, Rotor JLA 8.100, Avanti J-20 XP, Beckmann Coulter, Krefeld, Germany). The cell pellets were frozen and stored at −80 °C. Cells were resuspended in ribosome buffer (2 mL/g cells; 20 mmol/L HEPES-KOH, 6 mmol/L MgCl2, 30 mmol/L NH4Cl, 4 mmol/L 2-mercaptoethanol, pH 7.6). Lysozyme (0.25 g/L cell suspension) was added, and the mixture was incubated on ice for 30 min. Cells were disrupted using the bead mill homogenizer FastPrep-24™ 5G (40 s, 4 m/s, 6 cycles, MP Biomedicals Germany GmbH, Eschwege, Germany) and zirconia/silica beads (0.1 mm diameter). The lysate was centrifuged (1500× g, 5 min, 4 °C, Rotor S4180, Allegra 21R, Beckmann Coulter) and the supernatant was incubated with DNase (5 U/mL) on ice for 60 min. The cell debris was removed by two centrifugation steps (16,000× g, 30 min, 4 °C followed by 32,000× g, 60 min, 4 °C, Rotor JA 30.50 Ti, Avanti J-30I, Beckmann Coulter). The ribosome was pelleted by ultracentrifugation (165,000× g, 17 h, 4 °C, Rotor 70 Ti, Optima LE-80K, Beckmann Coulter), resuspended in ribosome buffer (0.1 mL/g pellet), and stored at −80 °C. The ribosome concentration was determined by recording the absorbance of RNA at 260 nm (NanoPhotometer NP80, Implen GmbH, München, Germany) assuming that 1 AU corresponds to a ribosome concentration of 28 nmol/L. The molecular weight of the E. coli 70S ribosome was assumed to be 2.3 MDa.
E. coli 70S ribosomes and Cf-ARV-1502 were incubated with four different concentrations of unlabeled peptides chosen based on the IC50 curves of reference peptide ARV-1502. Each peptide was diluted in ribosome buffer to obtain a concentration of 4.8 µmol/L and transferred to a 384-well-plate. Peptides were then twofold serially diluted in four steps from 4.8 to 0.6 µmol/L (20 µL). The ribosome extract was diluted in ribosome buffer to reach a concentration of 2 µmol/L and 10 µL were added to each well to obtain a final ribosome concentration of 0.5 µmol/L. Plates were centrifuged (2 min, 500× g, Rotor S2096, Allegra^TM 21R, Beckmann Coulter) and incubated at 28 °C for 90 min. Cf-labeled ARV-1502 was added (10 µL; final concentration of 20 nmol/L) and the plates were again centrifuged and incubated (28 °C, 90 min). After incubation, fluorescence polarization was recorded on a […]^TM microplate reader (λex = 485 nm, λem = 535 nm).
On each plate 12 minimum (30 µL ribosome buffer and 10 µL Cf-ARV-1502) and 12 maximum (20 µL ribosome buffer, 10 µL ribosome solution and 10 µL Cf-ARV-1502) control samples were added. Fluorescence polarization of screening samples was normalized to the fluorescence polarization of these control samples. All screening samples were measured in triplicates and the whole experiment was repeated once on another day.

The next experiment deals with E. coli BW25113. Nature of the experiment: MIC, liquid broth micro dilution, wild type. The experiment is classed as cell-based, Escherichia coli. To be noted: for Minimal Inhibitory Concentration, 25% MHB2, wt / Minimal Inhibitory Concentration, 33% TSB, wt: BW25113, 20 h. As to the method:
MIC values were determined using a liquid broth micro dilution assay in sterile 96-well plates (polystyrene F-bottom, Greiner Bio-One GmbH) and a total volume of 100 μL per well. Aqueous peptide solutions (10 g/L) were serially twofold diluted in 25% Mueller-Hinton broth 2 (25% MBH2) or 33% tryptic soy broth (33% TSB) starting at a peptide concentration of 128 mg/L (50 μL/well). Overnight cultures of bacteria grown in 25% MHB2 (or 33% TSB) were diluted 30-fold in 25% MHB2 (or 33% TSB). After an incubation period of 4 h (37 °C, 200 rpm), cells were diluted to 1.5 × 10^7 cfu/mL, based on a McFarland test, and 50 μL were added to each well (final concentration of 7.5 × 10^6 […]). The plates were incubated (37 °C, 20 h) and the optical density was recorded at 595 nm using a microplate reader ([…]^TM, Beckmann Coulter). The MIC was defined as the lowest peptide concentration preventing visible bacterial growth.

The subject of experiment [2] is E. coli 70S ribosome. In words: Cell-free GFP expression assay (in vitro translation). It counts as biochemical. The settings on record: for In Vitro Translation (%): GFP expression remaining relative to control, concentration not given (higher concentration 50 µmol/L); for Reduction of GFP expression, 50 µmol/L peptide: cell-free expression, peptide-to-ribosome ratio of 25, GFP fluorescence, 37 °C. The source says:
Possible effects of ARV-1502 and its substituted analogs on the in vitro translation of the green fluorescent protein (GFP) were probed using the NEB PureExpress Delta RF123 Kit (New England Biolabs, Ipswich, MA, USA). The sfGFP DNA template was amplified from pY71sfGFP plasmid by PCR introducing an UAA stop codon. Release factor 1 (RF1) was 50fold diluted in Pure System Buffer (PSB) containing magnesium acetate (1 mol/L), monopotassium phosphate (0.5 mol/L, pH 7.3), potassium glutamate (1 mol/L), NH4Cl (1 mol/L), calcium chloride (0.5 mol/L), spermidine (1 mol/L), putrescine (0.1 mol/L), and DTT (0.1 mol/L). Each reaction used 35 ng of sfGFP template. Peptides were added at a final concentration of 5 µmol/L and 50 µmol/L. The reaction was started by adding Kit solutions A (2 µL) and B (1.5 µL), diluted RF1 (0.5 µL), sfGFP template (0.25 µL or water as negative control), PSB (0.25 µL), and peptide (0.5 µL or water), mixed, transferred into a black 384-well plate (flat bottom, Greiner Bio-One GmbH), and incubated (37 °C, 2 h). The fluorescence was recorded every 10 min (λexc = 485 nm, λem = 535 nm) in a microplate reader (Gemini EM, Molecular Devices LLC, San Jose, CA, USA).

Values after ≈ are worked out from the molar mass of the structure shown. Marks after values point to notes of the source that are not given here. Square brackets hold non-standard residues; d marks the D form. Ends that are not written are not given here. Peptide text beside a SMILES is read from it. Ac6c = NC1(C(=O)O)CCCCC1

Consider five molecules from publication PMC8950706, “Influence of Substitutions in the Binding Motif of Proline-Rich Antimicrobial Peptide ARV-1502 on 70S Ribosome Binding and Antimicrobial Activity” (International Journal of Molecular Sciences, 2022).

Turning to “6: Chex-RPDDPRPYLPRPRPPRPVR-NH2 ([Ac6c]RPDDPRPYLPRPRPPRPVR-NH2; N-terminus assumed; SMILES CC(C)C[C@H](NC(=O)[C@H](Cc1ccc(O)cc1)NC(=O)[C@@H]1CCCN1C(=O)[C@H](CCCNC(=N)N)NC(=O)[C@@H]1CCCN1C(=O)[C@H](CC(=O)O)NC(=O)[C@H](CC(=O)O)NC(=O)[C@@H]1CCCN1C(=O)[C@H](CCCNC(=N)N)NC(=O)C1(N)CCCCC1)C(=O)N1CCC[C@H]1C(=O)N[C@@H](CCCNC(=N)N)C(=O)N1CCC[C@H]1C(=O)N[C@@H](CCCNC(=N)N)C(=O)N1CCC[C@H]1C(=O)N1CCC[C@H]1C(=O)N[C@@H](CCCNC(=N)N)C(=O)N1CCC[C@H]1C(=O)N[C@H](C(=O)N[C@@H](CCCNC(=N)N)C(N)=O)C(C)C) [Peptide 6]”, the “Inhibition of Cf-ARV-1502 binding to the 70S ribosome (in words)” value in the experiment with E. coli 70S ribosome [1] is “inhibited Cf-ARV-1502”. The “MIC / activity against E. coli” value in the experiment with E. coli BW25113 (medium not given) is listed as “low activity against E. coli”.

Regarding `CC(C)[C@H](NC(=O)[C@@H]1CCCN1C(=O)[C@H](CCCNC(=N)N)NC(=O)[C@@H]1CCCN1C(=O)[C@@H]1CCCN1C(=O)[C@H](CCCNC(=N)N)NC(=O)[C@@H]1CCCN1C(=O)[C@H](CCCNC(=N)N)NC(=O)[C@@H]1CCCN1C(=O)[C@H](CCCCN)NC(=O)[C@H](Cc1ccc(O)cc1)NC(=O)[C@@H]1CCCN1C(=O)[C@H](CCCNC(=N)N)NC(=O)[C@@H]1CCCN1C(=O)[C@H](CCCCN)NC(=O)[C@H](CCCCN)NC(=O)[C@@H]1CCCN1C(=O)[C@H](CCCNC(=N)N)NC(=O)C1(N)CCCCC1)C(=O)N[C@@H](CCCNC(=N)N)C(N)=O` [Peptide 37] (H-[Ac6c]RPKKPRPYKPRPRPPRPVR-NH2; N-terminus and C-terminus assumed), in the experiment with E. coli 70S ribosome [2], the “In Vitro Translation (%)” value amounted to 63.4 ± 13.3% and the “Reduction of GFP expression, 50 µmol/L peptide” value (from here on “Reduction of GFP expression”) is given as ~ 40%. In the experiment with E. coli 70S ribosome [1], the “Ribosome Binding (%)” value was 56.7 ± 2.6%. Also, the “MIC (µg/mL), Table 3” value with E. coli BW25113 (BW25113, 4 h) came out at 16 µg/mL (≈ 6.39 µM). In the experiment with E. coli BW25113, the “Minimal Inhibitory Concentration, 25% MHB2, wt” value turned out to be 16 µg/mL and the “Minimal Inhibitory Concentration, 33% TSB, wt” value worked out at 64 µg/mL.

As for `CC(C)C[C@H](NC(=O)[C@H](Cc1ccc(O)cc1)NC(=O)[C@@H]1CCCN1C(=O)[C@H](CCCNC(=N)N)NC(=O)[C@@H]1CCCN1C(=O)[C@H](CCCCN)NC(=O)[C@H](CCCCN)NC(=O)[C@@H]1CCCN1C(=O)[C@H](CCCNC(=N)N)NC(=O)C1(N)CCCCC1)C(=O)N1CCC[C@H]1C(=O)N[C@@H](Cc1ccccc1)C(=O)N1CCC[C@H]1C(=O)N[C@@H](CCCNC(=N)N)C(=O)N1CCC[C@H]1C(=O)N1CCC[C@H]1C(=O)N[C@@H](CCCNC(=N)N)C(=O)N1CCC[C@H]1C(=O)N[C@H](C(=O)N[C@@H](CCCNC(=N)N)C(N)=O)C(C)C` [Peptide 46] (H-[Ac6c]RPKKPRPYLPFPRPPRPVR-NH2; N-terminus and C-terminus assumed), in the experiment with E. coli 70S ribosome [2], the “In Vitro Translation (%)” value was 96.6 ± 3.1% and the “Reduction of GFP expression” value was “did not inhibit GFP expression”. For the same molecule, in the experiment on E. coli 70S ribosome [1], the “Ribosome Binding (%)” value was determined as 87.1 ± 3.4%. The “MIC / activity against E. coli” value against E. coli BW25113 (BW25113, 4 h) amounted to 16 µg/mL (≈ 6.45 µM). In the experiment on E. coli BW25113, the “Minimal Inhibitory Concentration, 25% MHB2, wt” value was found to be 16 µg/mL and the “Minimal Inhibitory Concentration, 33% TSB, wt” value is 64 * µg/mL.

In the case of `CC(C)C[C@H](NC(=O)[C@H](Cc1ccc(O)cc1)NC(=O)[C@@H]1CCCN1C(=O)[C@H](CCCNC(=N)N)NC(=O)[C@@H]1CCCN1C(=O)[C@H](Cc1ccccc1)NC(=O)[C@H](Cc1ccccc1)NC(=O)[C@@H]1CCCN1C(=O)[C@H](CCCNC(=N)N)NC(=O)C1(N)CCCCC1)C(=O)N[C@@H](CCCCN)C(=O)N[C@@H](CCCNC(=N)N)C(=O)N1CCC[C@H]1C(=O)N[C@@H](CCCNC(=N)N)C(=O)N1CCC[C@H]1C(=O)N1CCC[C@H]1C(=O)N[C@@H](CCCNC(=N)N)C(=O)N1CCC[C@H]1C(=O)N[C@H](C(=O)N[C@@H](CCCNC(=N)N)C(N)=O)C(C)C` [Peptide 98] (H-[Ac6c]RPFFPRPYLKRPRPPRPVR-NH2; N-terminus and C-terminus assumed), the “In Vitro Translation (%)” value in the experiment with E. coli 70S ribosome [2] stood at 56.2 ± 2.1%. Moreover, in the experiment on E. coli 70S ribosome [1], the “Inhibition of Cf-ARV-1502 binding to the 70S ribosome (in words)” value is listed as “poor competitor of Cf-ARV-1502” and the “Ribosome Binding (%)” value was 98.3 ± 1.5%. In the experiment on E. coli BW25113 (BW25113, 4 h), the “MIC (µg/mL), Table 3” value is 8 to 16 µg/mL. In addition, in the experiment with E. coli BW25113, the “Minimal Inhibitory Concentration, 25% MHB2, wt” value lay within 8 to 16 µg/mL and the “Minimal Inhibitory Concentration, 33% TSB, wt” value is reported as 32 µg/mL.

As for `CC(C)[C@H](NC(=O)[C@@H]1CCCN1C(=O)[C@H](CCCNC(=N)N)NC(=O)[C@@H]1CCCN1C(=O)[C@@H]1CCCN1C(=O)[C@H](CCCNC(=N)N)NC(=O)[C@@H]1CCCN1C(=O)[C@H](CCCNC(=N)N)NC(=O)[C@@H]1CCCN1C(=O)[C@H](CCCCN)NC(=O)[C@H](CO)NC(=O)[C@@H]1CCCN1C(=O)[C@H](CCCNC(=N)N)NC(=O)[C@@H]1CCCN1C(=O)[C@H](CCCCN)NC(=O)[C@H](CC(=O)O)NC(=O)[C@@H]1CCCN1C(=O)[C@H](CCCNC(=N)N)NC(=O)C1(N)CCCCC1)C(=O)N[C@@H](CCCNC(=N)N)C(N)=O` [Peptide 125] (H-[Ac6c]RPDKPRPSKPRPRPPRPVR-NH2; N-terminus and C-terminus assumed), in the experiment on E. coli 70S ribosome [2], the “In Vitro Translation (%)” value was 104.3 ± 9.3% and the “Reduction of GFP expression” value is listed as “slightly improved GFP translation”. In addition, the “Ribosome Binding (%)” value with E. coli 70S ribosome [1] is 86.3 ± 2.5%. Besides, the “MIC (µg/mL), Table 3” value with E. coli BW25113 (BW25113, 4 h) is reported as 128 µg/mL (≈ 53 µM). The “Minimal Inhibitory Concentration, 25% MHB2, wt” value in the experiment with E. coli BW25113 amounted to 128 µg/mL.
